{
  "source": "patent US9119882B2",
  "about": "“Volatile distillate by-product of mint oil that promotes absorption and/or bioavailability of compounds of bio-medical and nutritional interest” (Flavor Liquidating (G) Corporation (new name of A.M. Todd …, priority 2008, dated 2015)",
  "tested_on": "Caco-2 cells",
  "test": "Pilot study: uptake of CoQ10 into Caco-2 cells",
  "assay_type": "in vitro ADME, human",
  "details": "1 millimolar CoQ10, two hours, control set at 100%",
  "experimental": "An initial pilot study established that VDMO improved the uptake of CoQ10 into Caco-2 cells. Caco-2 cells were grown for 15 days in the bottom of 24-well plastic culture dishes and then were exposed to 1 millimolar concentrations of CoQ10 mixed with 5%, 1% or no VDMO. The VDMO utilized here was as analyzed in Table 3b. Cells were returned to the incubator for two hours, then cells and media were separated by centrifugation. The cellular fraction was washed and centrifuged a second time and the amount of CoQ10 inside the cells was determined by Liquid Chromatography Mass Spectrometry. The experiment was repeated twice; the absorption in the control group was set to 100% and treatments were compared accordingly; results are shown in Table 4.",
  "data": [
    {"smiles": "COC1=C(OC)C(=O)C(C/C=C(\\C)CC/C=C(\\C)CC/C=C(\\C)CC/C=C(\\C)CC/C=C(\\C)CC/C=C(\\C)CC/C=C(\\C)CC/C=C(\\C)CC/C=C(\\C)CCC=C(C)C)=C(C)C1=O", "note": "[CoQ10 + no VDMO; Control, Coenzyme Q10 (ubiquinone; CoQ10)]", "values": [
      {"measurement": "Absorption (%) Experiment 1", "value": "100 ± 6.1", "unit": "%"},
      {"measurement": "Absorption (%) Experiment 2", "value": "100 ± 0.3", "unit": "%"}
    ]}
  ]
}
